Laboratory results published in patent US10004828B2, “Self-assembled Fmoc-ff hydrogels” (Romat at Tel-Aviv University Ltd., priority 2005, dated 2018).
Like-named read-outs stand apart in the source and are kept apart here. Where a SMILES comes first, the peptide text is derived from it. The star is where a group is joined. Fmoc = O=C(OCC1c2ccccc2-c2ccccc21)*

Tests used:
[1] = cited from earlier work
[2] = HFIP stock, 5 mg/ml
Description: Determination of water percentage in the gel was done by washing a freshly formed hydrogel with water five times, each time for 15 minutes, followed by weighing the gel, lyophilizing it and weighing the remaining peptide aggregate.

[3] = for G' (storage modulus): at 1 Hz
Description: Rheological measurements were performed on AR 2000 controlled stress rheometer (TA Instruments Ltd, Great Britain) operated in cone-plate mode (cone angles 1 and 4 with diameters of 60 and 40 mm, respectively). Small-amplitude oscillatory shear experiments (0.1-10 Hz) were performed within the linear viscoelastic limit. Frequency scans were performed at the lowest stress possible to prevent damage to the sample. The linearity of response was monitored continuously to ascertain linear viscoelasticity.
To study the biomechanical characteristics of the novel hydrogel, rheology measurements were performed.

[4] = in vitro; settings: CHO cells seeded on the peptide hydrogel
Description: (§1) For cell growth in vitro experiments Chinese Hamster Ovary (CHO) cells were grown in Dulbecco's Modified Eagle Medium (DMEM) supplemented with 10% Fetal Calf Serum, 100 U/ml penicillin, 100 U/ml streptomycin and 2 mmol/liter L-glutamine (all from Beit Haemek, Israel). Cells were maintained at 37° C. in a humidified atmosphere containing 5% CO2. Sub-confluent cells were harvested by trypsinization, counted and diluted in the cells media to 1×10^5 cells/ml. The gel was washed three times with 0.5 ml water for 30 minutes at a time and was then left overnight in 0.5 ml DMEM. The DMEM was thereafter removed and 500 μl of CHO cells (5×10^4 cells) were added over the hydrogel. After a 24 hour incubation period at 37° C. the viability of the cells was determined using a MTT (3-(4,5-dimethylthiazolyl-2)-2,5-diphenyltetrazolium bromide) assay [Nowak et al., Nature 417, 424 (2002)].
(§2) In order to exploit whether the peptide-based hydrogel described herein can serve as a scaffold for tissue engineering applications, its biocompatibility was examined using cellular in vitro experiments. Chinese Hamster Ovary (CHO) cells were suspended above the hydrogel after its formation in a […]. After a one-day incubation period the cells were analyzed for viability.

[5] = test system: Chinese Hamster Ovary (CHO) cells; assay: in vitro
Description: as §1, §2

[6] = CHO cells on hydrogel from HFIP stock, one-day incubation

Molecule: [COCH3]-RADARADARADARADA-[CONH2] [RADA16 (Puramatrix)]
- G' (storage modulus) ([1]; 5 mg/ml, Tris HCl buffer, at 1 Hz, reported value): 50 Pa
- G' (storage modulus) ([1]; 5 mg/ml, Tris HCl buffer, at 1 Hz, reported value, listed as PuraMatrix gel): about 50 Pa
- G' (storage modulus) ([1]; at 1 Hz frequency, concentration not given): about 50 Pa

Molecule: O=C(N[C@@H](Cc1ccccc1)C(=O)N[C@@H](Cc1ccccc1)C(=O)O)OCC1c2ccccc2-c2ccccc21 [Fmoc-Phe-Phe, Fmoc-diphenylalanine] (Fmoc-Phe-Phe-OH)
- hydrogel water content [2]: greater than 99%
- storage modulus G' excess over loss modulus G'' ([3]; HFIP stock, final concentration 5 mg/ml (FIG. 3a)): about one order of magnitude
- G' (storage modulus) ([3]; peptide concentration 5 mg/ml, solvent not stated): about 2×10^4 Pa
- G' (storage modulus) ([3]; peptide final concentration 1 mg/ml, stock solution solvent DMSO): 1,000 Pa
- G' (storage modulus) ([3]; peptide final concentration 2 mg/ml, acetone stock solution): about 2×10^3 Pa
- G' (storage modulus) ([3]; peptide final concentration 5 mg/ml, stock solution solvent HFIP): 10,000 Pa
- G' (storage modulus) ([3]; peptide final concentration 5 mg/ml, stock solution solvent HFIP, listed as Fmoc-diphenylalanine): about 10^4 Pa
- G' (storage modulus) ([3]; peptide final concentration 5 mg/ml, stock solution solvent acetone): 10,000 Pa
- G' (storage modulus) ([3]; peptide final concentration 10 mg/ml, acetone stock solution (FIG. 3c)): about 2×10^4 Pa
- G' relative to that reported for other self-assembled peptide hydrogels ([3]; versus hydrogels formed without chemical cross linking): 200 fold
- viability at 24 h [4]: > 80%
- cell morphology [5, 6]: normal cell morphology
- rate of proliferation [5, 6]: normal rate of proliferation
- cell growth on hydrogel compared with poly lysine ([5]; CHO cells, hydrogel from DMSO stock, final DMSO concentration 1%): effective matrix for cell growth
